ChEMBL document CHEMBL5506022, “Discovery of Novel Dual Inhibitors Targeting Mutant IDH1 and NAMPT for the Treatment of Glioma with IDH1Mutation” (J Med Chem, 2024)
The source made the active and inactive calls. No cut-off for these calls is given here.

Columns and labels:
[1] = molecular target: Isocitrate dehydrogenase [NADP] cytoplasmic (Homo sapiens, UniProt O75874, R132C); assay: Inhibition of recombinant IDH1 R132C mutant (unknown origin) using alpha-ketoglutarate as substrate incubated for 60 mins in presence of NADPH by fluorescence microplate reader
Sequence of Isocitrate dehydrogenase [NADP] cytoplasmic (Homo sapiens, UniProt O75874, R132C) (O75874 2-414 R132C limits assumed): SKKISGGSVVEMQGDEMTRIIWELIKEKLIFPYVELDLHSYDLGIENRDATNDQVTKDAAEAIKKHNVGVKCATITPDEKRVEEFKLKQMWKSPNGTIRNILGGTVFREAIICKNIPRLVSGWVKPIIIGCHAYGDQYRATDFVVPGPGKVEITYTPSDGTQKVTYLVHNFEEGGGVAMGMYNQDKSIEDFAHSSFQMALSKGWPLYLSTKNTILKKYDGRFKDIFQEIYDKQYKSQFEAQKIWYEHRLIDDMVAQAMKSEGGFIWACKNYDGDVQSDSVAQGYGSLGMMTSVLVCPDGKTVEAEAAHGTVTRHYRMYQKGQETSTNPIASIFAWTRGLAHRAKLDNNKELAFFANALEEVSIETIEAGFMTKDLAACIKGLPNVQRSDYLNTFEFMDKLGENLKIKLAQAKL

[2] = molecular target: Isocitrate dehydrogenase [NADP] cytoplasmic (Homo sapiens, UniProt O75874); assay: Inhibition of wildtype IDH1 (unknown origin) using DL-isocitrate as substrate incubated for 60 mins in presence of NADP by fluorescence microplate reader
Sequence of Isocitrate dehydrogenase [NADP] cytoplasmic (Homo sapiens, UniProt O75874) (O75874 whole entry): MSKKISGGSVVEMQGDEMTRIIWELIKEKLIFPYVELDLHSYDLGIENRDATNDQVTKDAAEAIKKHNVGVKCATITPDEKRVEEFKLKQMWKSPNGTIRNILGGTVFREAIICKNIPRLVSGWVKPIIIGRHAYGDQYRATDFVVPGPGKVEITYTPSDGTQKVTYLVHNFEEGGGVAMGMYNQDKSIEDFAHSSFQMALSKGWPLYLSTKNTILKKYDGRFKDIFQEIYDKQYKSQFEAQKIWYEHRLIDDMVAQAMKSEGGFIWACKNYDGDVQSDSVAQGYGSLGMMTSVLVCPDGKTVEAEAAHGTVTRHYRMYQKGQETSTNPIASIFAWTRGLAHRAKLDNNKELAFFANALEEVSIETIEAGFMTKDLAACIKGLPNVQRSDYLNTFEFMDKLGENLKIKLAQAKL

[3] = molecular target: Nicotinamide phosphoribosyltransferase (Homo sapiens, UniProt P43490)
Sequence of Nicotinamide phosphoribosyltransferase (P43490 whole entry): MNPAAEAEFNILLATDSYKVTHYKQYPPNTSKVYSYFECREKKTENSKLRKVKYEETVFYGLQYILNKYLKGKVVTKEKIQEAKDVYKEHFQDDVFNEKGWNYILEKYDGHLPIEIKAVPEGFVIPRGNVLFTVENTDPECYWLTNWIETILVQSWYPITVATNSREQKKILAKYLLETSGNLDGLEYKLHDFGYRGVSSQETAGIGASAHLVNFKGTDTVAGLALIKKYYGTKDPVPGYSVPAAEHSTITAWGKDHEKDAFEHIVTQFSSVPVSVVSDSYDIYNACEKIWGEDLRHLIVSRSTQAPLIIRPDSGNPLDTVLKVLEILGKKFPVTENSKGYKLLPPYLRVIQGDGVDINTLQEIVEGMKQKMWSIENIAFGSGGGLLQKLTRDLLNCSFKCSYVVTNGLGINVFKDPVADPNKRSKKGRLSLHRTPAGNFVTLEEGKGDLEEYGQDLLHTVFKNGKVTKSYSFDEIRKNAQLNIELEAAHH

U-87 MG [4] = assay: Antiproliferative activity against human U-87 MG cells harboring wildtype IDH1 assessed as inhibition of cell growth incubated for 24 hrs by CCK8 assay; format: functional, cell-based, U-87MG ATCC
U-87 MG [5] = assay: Antiproliferative activity against human U-87 MG cells harboring wildtype IDH1 assessed as inhibition of cell growth incubated for 48 hrs by CCK8 assay; format: functional, cell-based, U-87MG ATCC
U-87 MG [6] = assay: Antiproliferative activity against human U-87 MG cells harboring wildtype IDH1 assessed as inhibition of cell growth incubated for 72 hrs by CCK8 assay; format: functional, cell-based, U-87MG ATCC
U-87 MG [7] = format: functional, cell-based, U-87MG ATCC; details: Homo sapiens, 24 h
U-87 MG [8] = format: functional, cell-based, U-87MG ATCC; details: Homo sapiens, 48 h
U-87 MG [9] = format: functional, cell-based, U-87MG ATCC; details: Homo sapiens, 72 h
U-87 MG [10] = assay: Synergistic antiproliferative activity against human U-87 MG cells harboring wildtype IDH1 assessed as inhibition of cell growth incubated for 48 hrs in presence of AG-120 by CCK8 assay; format: functional, cell-based, U-87MG ATCC
U-87 MG [11] = assay: Synergistic antiproliferative activity against human U-87 MG cells harboring wildtype IDH1 assessed as inhibition of cell growth incubated for 48 hrs in presence of IDH305 by CCK8 assay; format: functional, cell-based, U-87MG ATCC
U-87 MG [12] = format: functional, cell-based, U-87MG ATCC; details: Homo sapiens, 48 h; remark: listed apart in the source
U-87 MG [13] = format: functional, cell-based, U-87MG ATCC; details: Homo sapiens, 48 h; remark: listed apart in the source
U-87MG ATCC [14] = assay: Effect on intracellular NADP+ level in human U-87 MG cells harboring wildtype IDH1; format: functional, cell-based
U-87MG ATCC [15] = format: functional, cell-based; details: Homo sapiens, dose 0.5 µM, time 48.0 hrs
U-87 MG [16] = format: functional, organism-based; details: Homo sapiens; U-87MG ATCC; dose 30.0 mg/kg, route ip, time 35.0 day
U-87 MG [17] = assay: cells; details: Homo sapiens, 48 h, read-out: Activity
U-87 MG [18] = assay: cells; details: Homo sapiens, 48 h, read-out: Activity; remark: listed apart in the source

| SMILES | IC50 [1] | IC50 [2] | IC50 [3] | other results |
| --- | --- | --- | --- | --- |
| CC(C)[C@H]1COC(=O)N1c1ccnc(N[C@@H](C)c2ccc(NC(=O)CCCNC(=O)/C=C/c3cccnc3)cc2)n1 | 355 nM | 9.4 µM | 45.7 nM |  |
| C[C@H](Nc1nccc(N2C(=O)OC[C@@H]2[C@H](C)F)n1)c1ccc(-c2ccc(NC(=O)c3ccc4nccn4c3)cc2)cn1 | 369 nM | 26.1 µM | 24.3 nM |  |
| C[C@H](Nc1nccc(N2C(=O)OC[C@@H]2[C@@H](C)O)n1)c1ccc(-c2ccc(NC(=O)COc3cccnc3)cc2)cc1 | 138 nM | 6.94 µM | 42.2 nM |  |
| C[C@H](Nc1nccc(N2C(=O)OC[C@@H]2[C@H](C)F)n1)c1ccc(-c2ccc(NC(=O)COc3cccnc3)cc2)cn1 | 419 nM | 21.1 µM | 32.2 nM |  |
| C[C@H](Nc1nccc(N2C(=O)OC[C@@H]2[C@H](C)F)n1)c1ccc(-c2ccc(NC(=O)c3ccc4nccn4c3)cc2)cc1 | 231 nM | 7.33 µM | 39.8 nM |  |
| CC(C)[C@H]1COC(=O)N1c1ccnc(N[C@@H](C)c2ccc(-c3ccc(NC(=O)c4ccc5nccn5c4)cc3)cc2)n1 | 73.2 nM | 9.16 µM | 193 nM | IC50 (U-87 MG [4]): 2.66 µM; IC50 (U-87 MG [5]): 1210 nM; IC50 (U-87 MG [6]): 3260 nM; IC50 (U-87 MG [7]): 3110 nM; IC50 (U-87 MG [8]): 3260 nM; IC50 (U-87 MG [9]): 1460 nM |
| C[C@H](Nc1nccc(N2C(=O)OC[C@@H]2[C@H](C)F)n1)c1ccc(-c2ccc(NC(=O)/C=C/c3cccnc3)cc2)cn1 | 342 nM | 14 µM | 53.2 nM |  |
| CC(C)[C@H]1COC(=O)N1c1ccnc(N[C@@H](C)c2ccc(-c3ccc(NC(=O)c4cnccn4)cc3)cc2)n1 | 579 nM | 19.7 µM | 241 nM |  |
| CC(C)[C@H]1COC(=O)N1c1ccnc(N[C@@H](C)c2ccc(NC(=O)C3CCN(C(=O)/C=C/c4cccnc4)C3)cc2)n1 (stereo partly specified) | 430 nM | 3.71 µM | 54.1 nM |  |
| C[C@H](Nc1nccc(N2C(=O)OC[C@@H]2[C@@H](C)OC(C)(C)C)n1)c1ccc(-c2ccc(NC(=O)/C=C/c3cccnc3)cc2)cc1 | 78.7 nM | 14.7 µM | 42.5 nM |  |
| C[C@H](Nc1nccc(N2C(=O)OC[C@@H]2[C@@H](C)O)n1)c1ccc(-c2ccc(NC(=O)/C=C/c3cccnc3)cc2)cc1 | 57 nM | 6.46 µM | 32.6 nM |  |
| CC(C)[C@H]1COC(=O)N1c1ccnc(N[C@@H](C)c2ccc(-c3ccc(NC(=O)c4cc5cnccc5[nH]4)cc3)cc2)n1 | 171 nM | 9.16 µM | 127 nM |  |
| C[C@H](Nc1nccc(N2C(=O)OC[C@@H]2Cc2ccccc2)n1)c1ccc(-c2ccc(NC(=O)/C=C/c3cccnc3)cc2)cc1 | 130 nM | 32.8 µM | 38 nM |  |
| CC(C)[C@H]1COC(=O)N1c1ccnc(N[C@@H](C)c2ccc(-c3ccc(NC(=O)c4cnc5[nH]ccc5c4)cc3)cc2)n1 | 17.7 nM | 6.44 µM | 162 nM |  |
| CC(C)[C@H]1COC(=O)N1c1ccnc(N[C@@H](C)c2ccc(NC(=O)CNC(=O)/C=C/c3cccnc3)cc2)n1 | 362 nM | 4.43 µM | 15.1 nM |  |
| O=C(/C=C/c1cccnc1)NCCCCC1CCN(C(=O)c2ccccc2)CC1 [DAPORINAD] |  |  |  | IC50 (U-87 MG [4]): 5.46 µM; IC50 (U-87 MG [5]): 2550 nM; IC50 (U-87 MG [6]): 1630 nM; IC50 (U-87 MG [7]): 1040 nM; IC50 (U-87 MG [8]): 970 nM; IC50 (U-87 MG [9]): 410 nM; IC50 (U-87 MG [10]): 2510 nM; IC50 (U-87 MG [11]): 1690 nM; IC50 (U-87 MG [12]): 560 nM; IC50 (U-87 MG [13]): 450 nM; Activity (U-87MG ATCC [14]): inactive; Activity (U-87MG ATCC [15]): inactive; Activity (U-87 MG [16]): Active; viability at 1 µM (U-87 MG [17]): 40.8%; viability at 1 µM (U-87 MG [18]): 27.8% |
